Assays:
[1] = molecular target: Bromodomain adjacent to zinc finger domain protein 2B (Homo sapiens, UniProt Q9UIF8)
Description: Binding affinity to BAZ2B bromodomain (unknown origin) assessed as dissociation constant by BROMOscan technology

[2] = molecular target: von Hippel-Lindau disease tumor suppressor/Bromodomain adjacent to zinc finger domain protein 2A (Homo sapiens, UniProt Q9UIF9+P40337); assay: PROTAC activity at BAZ2A/VHL in human PC-3 cells assessed as degradation after 4 hrs by Western blot analysis
[3] = molecular target: von Hippel-Lindau disease tumor suppressor/Bromodomain adjacent to zinc finger domain protein 2B (Homo sapiens, UniProt Q9UIF8+P40337); assay: PROTAC activity at BAZ2B/VHL in human PC-3 cells assessed as degradation after 4 hrs by Western blot analysis
[4] = molecular target: Bromodomain adjacent to zinc finger domain protein 2A (Homo sapiens, UniProt Q9UIF9)
Description: Binding affinity to BAZ2A bromodomain (unknown origin) assessed as dissociation constant by BROMOscan technology

[5] = Induction of BAZ2A level in human PC-3 cells measured after 4 hrs by Western blot analysis; details: PC-3, 4 h
[6] = molecular target: von Hippel-Lindau disease tumor suppressor/Bromodomain adjacent to zinc finger domain protein 2A (Homo sapiens, UniProt P40337+Q9UIF9); assay: PROTAC activity at BAZ2A/VHL in human PC-3 cells assessed as BAZ2A degradation after 4 hrs by Western blot analysis

Row | Kd [1] [nM] | DC50 [2] [nM] | DC50 [3] [nM] | Kd [4] [nM] | EC50 [5] [nM] | EC50 [6] [nM] | Compound
1 | 9.2 |  |  |  |  |  | Cn1cc(CCn2c(CO)nc(-c3cnn(C)c3)c2-c2ccc(C#N)cc2)cn1
2 | 10 |  |  |  |  |  | COCc1nc(-c2cnn(C)c2)c(-c2ccc(C#N)cc2)n1CCc1cnn(C)c1
3 | 16 | 180 | 250 | 4.8 |  |  | Cc1ncsc1-c1ccc(CNC(=O)[C@@H]2C[C@@H](O)CN2C(=O)[C@@H](NC(=O)C2(F)CC2)C(C)(C)SC[C@H]2CC[C@H](COCc3nc(-c4cnn(C)c4)c(-c4ccc(C#N)cc4)n3CCc3cnn(C)c3)CC2)cc1
4 | 51 |  | 19 | 4.7 | 35 | 35 | Cc1ncsc1-c1ccc(CNC(=O)[C@@H]2C[C@@H](O)CN2C(=O)[C@@H](NC(=O)C2(F)CC2)C(C)(C)C)c(OC[C@H]2CC[C@H](COCc3nc(-c4cnn(C)c4)c(-c4ccc(C#N)cc4)n3CCc3cnn(C)c3)CC2)c1

— ChEMBL document CHEMBL6103605, “Discovery of First-in-Class BAZ2A/B and BAZ2B-Selective Degraders” (ACS Med Chem Lett, 2025)
